Measured values from ChEMBL document CHEMBL5465560, “Selectivity Literature for EUbOPEN Chemogenomic Library” (2024).

Experiments:
[1] = molecular target: Serine/threonine-protein kinase 32A (Homo sapiens) (UniProt Q8WU08); experiment: Selectivity interaction (KinomeScan (DiscoverX)) EUB0000229b STK32A; conditions: at 10 µM
[2] = molecular target: Mitogen-activated protein kinase 8 (Homo sapiens, UniProt P45983); experiment: Selectivity interaction (KinomeScan (DiscoverX)) EUB0000092b MAPK8; conditions: at 10 µM
[3] = molecular target: Serine/threonine-protein kinase PLK3 (Homo sapiens, UniProt Q9H4B4); experiment: Selectivity interaction (KinomeScan (DiscoverX)) EUB0000092b PLK3; conditions: at 10 µM
[4] = molecular target: T1, Myotonin-protein kinase (Homo sapiens) (UniProt Q09013); experiment: Selectivity interaction (ProQinase) EUB0000171b DMPK
T1 sequence (whole entry): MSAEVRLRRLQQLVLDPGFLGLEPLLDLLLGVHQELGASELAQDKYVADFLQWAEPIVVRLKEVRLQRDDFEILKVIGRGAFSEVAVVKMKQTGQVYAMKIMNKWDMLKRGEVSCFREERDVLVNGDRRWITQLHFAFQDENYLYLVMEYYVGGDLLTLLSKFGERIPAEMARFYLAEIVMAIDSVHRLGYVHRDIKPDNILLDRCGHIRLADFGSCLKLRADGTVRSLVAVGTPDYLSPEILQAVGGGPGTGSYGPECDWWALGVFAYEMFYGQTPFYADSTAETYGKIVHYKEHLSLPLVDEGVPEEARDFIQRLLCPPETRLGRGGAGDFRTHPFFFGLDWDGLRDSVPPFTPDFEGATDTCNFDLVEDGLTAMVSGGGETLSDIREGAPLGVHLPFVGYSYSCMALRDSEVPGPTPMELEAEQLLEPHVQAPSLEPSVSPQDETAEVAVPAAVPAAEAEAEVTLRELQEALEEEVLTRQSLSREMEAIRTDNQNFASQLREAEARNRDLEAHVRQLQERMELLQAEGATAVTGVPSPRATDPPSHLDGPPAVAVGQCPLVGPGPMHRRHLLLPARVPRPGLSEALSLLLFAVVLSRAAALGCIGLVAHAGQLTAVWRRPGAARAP

[5] = molecular target: Serine/threonine-protein kinase SBK1 (Homo sapiens) (UniProt Q52WX2); experiment: Selectivity interaction (KinomeScan (DiscoverX)) EUB0001079a SBK1; conditions: at 1 µM
[6] = molecular target: Serine/threonine-protein kinase WNK4 (Homo sapiens) (UniProt Q96J92); experiment: Selectivity interaction (KinomeScan (DiscoverX)) EUB0001079a WNK4; conditions: at 1 µM
[7] = molecular target: Mitogen-activated protein kinase 14 (Homo sapiens, UniProt Q16539); experiment: Selectivity interaction (Kinase panel (KiNativ target engagement assay in Jurkat cells)) EUB0001635a MAPK14; type: cell-based; conditions: Selectivity number of off-targets 0.0, Selectivity number of targets 233.0, Source Knowledge https://www.sciencedirect.com/science/article/pii/S2451945619300674?via%3Dihub, at 1 µM
[8] = molecular target: Serine/threonine-protein kinase OSR1 (Homo sapiens) (UniProt O95747); experiment: Selectivity interaction (Kinase panel (KiNativ target engagement assay in Jurkat cells)) EUB0001635a OXSR1; type: cell-based; conditions: Selectivity number of off-targets 0.0, Selectivity number of targets 233.0, Source Knowledge https://www.sciencedirect.com/science/article/pii/S2451945619300674?via%3Dihub, at 1 µM
[9] = molecular target: T2, Mitogen-activated protein kinase 12 (Homo sapiens) (UniProt P53778); conditions: at 10 µM
T2 sequence (whole entry): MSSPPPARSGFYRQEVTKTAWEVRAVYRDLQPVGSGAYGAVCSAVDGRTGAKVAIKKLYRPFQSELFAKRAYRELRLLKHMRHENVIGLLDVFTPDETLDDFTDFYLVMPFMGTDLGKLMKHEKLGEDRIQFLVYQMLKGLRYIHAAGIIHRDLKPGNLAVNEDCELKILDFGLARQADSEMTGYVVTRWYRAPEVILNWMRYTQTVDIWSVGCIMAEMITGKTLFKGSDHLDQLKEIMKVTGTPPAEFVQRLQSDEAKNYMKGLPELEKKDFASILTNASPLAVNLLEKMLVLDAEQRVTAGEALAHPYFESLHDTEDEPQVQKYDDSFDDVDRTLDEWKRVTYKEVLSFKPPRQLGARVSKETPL

[10] = molecular target: STE20/SPS1-related proline-alanine-rich protein kinase (Homo sapiens) (UniProt Q9UEW8); conditions: at 10 µM
[11] = molecular target: Fibroblast growth factor receptor 2 (Homo sapiens) (UniProt P21802); experiment: Selectivity interaction (Kinase panel (Invitrogen)) EUB0000639a FGFR2; conditions: at 200 nM
[12] = molecular target: Interferon-induced, double-stranded RNA-activated protein kinase (Homo sapiens) (UniProt P19525); experiment: Selectivity interaction (ActivX KiNativ screen (kinase selectivity in THP-1 cell lysates)) EUB0000639a EIF2AK2; type: subcellular; conditions: lysate, at 0.01 µM
[13] = molecular target: Proto-oncogene tyrosine-protein kinase receptor Ret (Homo sapiens, UniProt P07949); experiment: Selectivity interaction (Kinase panel (Invitrogen)) EUB0000639a RET; conditions: at 200 nM
[14] = molecular target: T3, STE20-related kinase adapter protein alpha (Homo sapiens) (UniProt Q7RTN6); experiment: Selectivity interaction (ActivX KiNativ screen (kinase selectivity in THP-1 cell lysates)) EUB0000639a STRADA; type: subcellular; conditions: lysate, at 5 µM
T3 sequence (whole entry): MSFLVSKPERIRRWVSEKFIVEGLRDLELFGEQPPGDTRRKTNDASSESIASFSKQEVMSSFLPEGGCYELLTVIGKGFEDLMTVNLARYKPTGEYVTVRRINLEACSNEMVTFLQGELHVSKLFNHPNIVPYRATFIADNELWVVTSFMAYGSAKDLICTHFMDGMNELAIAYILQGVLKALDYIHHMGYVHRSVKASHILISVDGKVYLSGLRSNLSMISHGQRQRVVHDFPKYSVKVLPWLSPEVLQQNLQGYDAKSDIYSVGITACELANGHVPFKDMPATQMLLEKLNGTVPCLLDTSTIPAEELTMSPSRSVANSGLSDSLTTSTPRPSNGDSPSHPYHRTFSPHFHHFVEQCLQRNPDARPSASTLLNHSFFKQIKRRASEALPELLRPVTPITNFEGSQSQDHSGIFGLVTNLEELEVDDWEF

[15] = molecular target: Ribosomal protein S6 kinase alpha-3 (Homo sapiens, UniProt P51812); experiment: Selectivity interaction (KinomeScan (DiscoverX)) EUB0001049a RPS6KA3; conditions: at 1 µM
[16] = molecular target: Dual specificity testis-specific protein kinase 1 (Homo sapiens) (UniProt Q15569); conditions: at 10 µM
[17] = molecular target: TRAF2 and NCK-interacting protein kinase (Homo sapiens) (UniProt Q9UKE5); experiment: Selectivity interaction (Ambit KINOMEscan and KiNATiv profiling in Jurkat cells) EUB0000090b TNIK; type: cell-based; conditions: at 1 µM
Sequence of TRAF2 and NCK-interacting protein kinase (Homo sapiens) (Q9UKE5 whole entry, looked up): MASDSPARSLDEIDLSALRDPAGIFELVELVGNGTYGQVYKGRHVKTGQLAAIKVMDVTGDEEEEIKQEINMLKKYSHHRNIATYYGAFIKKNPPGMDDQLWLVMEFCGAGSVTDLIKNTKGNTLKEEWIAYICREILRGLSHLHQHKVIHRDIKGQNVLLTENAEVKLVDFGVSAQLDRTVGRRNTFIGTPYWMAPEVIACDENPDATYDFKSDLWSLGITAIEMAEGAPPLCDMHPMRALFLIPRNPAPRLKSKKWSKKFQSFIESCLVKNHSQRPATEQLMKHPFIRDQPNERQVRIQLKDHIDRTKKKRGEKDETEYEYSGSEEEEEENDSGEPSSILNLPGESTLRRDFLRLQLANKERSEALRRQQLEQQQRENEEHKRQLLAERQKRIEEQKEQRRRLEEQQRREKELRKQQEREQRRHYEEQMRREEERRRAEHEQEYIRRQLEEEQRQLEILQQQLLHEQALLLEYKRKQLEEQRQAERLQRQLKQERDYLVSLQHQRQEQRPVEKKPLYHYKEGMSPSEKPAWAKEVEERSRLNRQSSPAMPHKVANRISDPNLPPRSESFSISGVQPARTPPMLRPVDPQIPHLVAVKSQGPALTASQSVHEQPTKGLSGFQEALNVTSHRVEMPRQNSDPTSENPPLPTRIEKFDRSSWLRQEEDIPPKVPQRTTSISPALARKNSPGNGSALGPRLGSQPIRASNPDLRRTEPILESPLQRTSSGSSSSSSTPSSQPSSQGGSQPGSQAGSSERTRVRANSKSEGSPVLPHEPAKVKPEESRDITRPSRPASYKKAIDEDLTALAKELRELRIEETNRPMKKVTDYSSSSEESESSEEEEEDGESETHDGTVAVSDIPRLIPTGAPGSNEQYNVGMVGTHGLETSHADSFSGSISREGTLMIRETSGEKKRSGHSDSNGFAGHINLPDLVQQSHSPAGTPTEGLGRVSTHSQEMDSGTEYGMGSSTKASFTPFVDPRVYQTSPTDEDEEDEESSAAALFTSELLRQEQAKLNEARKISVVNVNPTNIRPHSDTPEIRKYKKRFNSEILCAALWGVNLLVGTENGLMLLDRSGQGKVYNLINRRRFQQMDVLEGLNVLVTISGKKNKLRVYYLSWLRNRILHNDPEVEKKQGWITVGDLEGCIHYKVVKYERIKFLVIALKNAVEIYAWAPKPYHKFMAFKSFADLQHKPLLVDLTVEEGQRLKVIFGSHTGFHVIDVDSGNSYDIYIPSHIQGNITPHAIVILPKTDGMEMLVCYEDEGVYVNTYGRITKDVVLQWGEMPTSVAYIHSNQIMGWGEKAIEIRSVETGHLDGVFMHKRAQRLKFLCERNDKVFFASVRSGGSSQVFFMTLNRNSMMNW

Sequence of Mitogen-activated protein kinase 8 (P45983 whole entry): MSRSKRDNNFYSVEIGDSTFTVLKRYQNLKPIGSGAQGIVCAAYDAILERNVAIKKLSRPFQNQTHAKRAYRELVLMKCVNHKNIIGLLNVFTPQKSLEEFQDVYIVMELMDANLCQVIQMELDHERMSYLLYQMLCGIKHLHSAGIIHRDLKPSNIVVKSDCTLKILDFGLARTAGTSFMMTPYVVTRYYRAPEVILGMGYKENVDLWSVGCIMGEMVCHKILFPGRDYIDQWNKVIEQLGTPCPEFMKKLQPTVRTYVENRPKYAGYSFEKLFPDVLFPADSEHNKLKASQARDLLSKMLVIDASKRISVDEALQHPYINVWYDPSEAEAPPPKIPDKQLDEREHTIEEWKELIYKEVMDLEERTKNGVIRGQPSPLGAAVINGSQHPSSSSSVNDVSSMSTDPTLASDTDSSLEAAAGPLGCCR
Sequence of Dual specificity testis-specific protein kinase 1 (Homo sapiens) (Q15569 whole entry, looked up): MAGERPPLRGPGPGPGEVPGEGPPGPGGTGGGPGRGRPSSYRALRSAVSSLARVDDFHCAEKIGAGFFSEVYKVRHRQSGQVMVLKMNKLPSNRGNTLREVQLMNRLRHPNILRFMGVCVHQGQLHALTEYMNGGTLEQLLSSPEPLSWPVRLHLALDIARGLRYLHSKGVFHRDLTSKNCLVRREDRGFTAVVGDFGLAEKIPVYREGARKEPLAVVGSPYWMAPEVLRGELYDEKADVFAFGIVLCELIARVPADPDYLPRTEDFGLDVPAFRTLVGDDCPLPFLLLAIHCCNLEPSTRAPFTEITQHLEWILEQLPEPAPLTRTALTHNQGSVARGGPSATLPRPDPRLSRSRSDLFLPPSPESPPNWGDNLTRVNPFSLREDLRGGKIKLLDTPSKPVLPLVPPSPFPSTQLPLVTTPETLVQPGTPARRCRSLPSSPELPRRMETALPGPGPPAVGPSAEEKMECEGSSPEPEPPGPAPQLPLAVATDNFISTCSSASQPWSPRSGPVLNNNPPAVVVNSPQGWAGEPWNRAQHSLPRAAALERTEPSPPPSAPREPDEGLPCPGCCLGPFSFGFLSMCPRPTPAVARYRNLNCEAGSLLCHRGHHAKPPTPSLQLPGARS
Sequence of Mitogen-activated protein kinase 14 (Q16539 whole entry): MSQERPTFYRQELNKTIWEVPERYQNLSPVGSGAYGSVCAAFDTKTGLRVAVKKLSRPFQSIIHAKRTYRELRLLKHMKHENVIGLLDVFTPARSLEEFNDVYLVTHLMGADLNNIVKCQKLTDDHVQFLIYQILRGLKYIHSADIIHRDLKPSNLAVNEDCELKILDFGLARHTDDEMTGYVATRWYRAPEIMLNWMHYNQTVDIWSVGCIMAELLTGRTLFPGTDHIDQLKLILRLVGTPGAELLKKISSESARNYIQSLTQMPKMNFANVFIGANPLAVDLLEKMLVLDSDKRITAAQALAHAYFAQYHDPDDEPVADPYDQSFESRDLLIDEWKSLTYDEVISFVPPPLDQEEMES
Sequence of Proto-oncogene tyrosine-protein kinase receptor Ret (P07949 whole entry): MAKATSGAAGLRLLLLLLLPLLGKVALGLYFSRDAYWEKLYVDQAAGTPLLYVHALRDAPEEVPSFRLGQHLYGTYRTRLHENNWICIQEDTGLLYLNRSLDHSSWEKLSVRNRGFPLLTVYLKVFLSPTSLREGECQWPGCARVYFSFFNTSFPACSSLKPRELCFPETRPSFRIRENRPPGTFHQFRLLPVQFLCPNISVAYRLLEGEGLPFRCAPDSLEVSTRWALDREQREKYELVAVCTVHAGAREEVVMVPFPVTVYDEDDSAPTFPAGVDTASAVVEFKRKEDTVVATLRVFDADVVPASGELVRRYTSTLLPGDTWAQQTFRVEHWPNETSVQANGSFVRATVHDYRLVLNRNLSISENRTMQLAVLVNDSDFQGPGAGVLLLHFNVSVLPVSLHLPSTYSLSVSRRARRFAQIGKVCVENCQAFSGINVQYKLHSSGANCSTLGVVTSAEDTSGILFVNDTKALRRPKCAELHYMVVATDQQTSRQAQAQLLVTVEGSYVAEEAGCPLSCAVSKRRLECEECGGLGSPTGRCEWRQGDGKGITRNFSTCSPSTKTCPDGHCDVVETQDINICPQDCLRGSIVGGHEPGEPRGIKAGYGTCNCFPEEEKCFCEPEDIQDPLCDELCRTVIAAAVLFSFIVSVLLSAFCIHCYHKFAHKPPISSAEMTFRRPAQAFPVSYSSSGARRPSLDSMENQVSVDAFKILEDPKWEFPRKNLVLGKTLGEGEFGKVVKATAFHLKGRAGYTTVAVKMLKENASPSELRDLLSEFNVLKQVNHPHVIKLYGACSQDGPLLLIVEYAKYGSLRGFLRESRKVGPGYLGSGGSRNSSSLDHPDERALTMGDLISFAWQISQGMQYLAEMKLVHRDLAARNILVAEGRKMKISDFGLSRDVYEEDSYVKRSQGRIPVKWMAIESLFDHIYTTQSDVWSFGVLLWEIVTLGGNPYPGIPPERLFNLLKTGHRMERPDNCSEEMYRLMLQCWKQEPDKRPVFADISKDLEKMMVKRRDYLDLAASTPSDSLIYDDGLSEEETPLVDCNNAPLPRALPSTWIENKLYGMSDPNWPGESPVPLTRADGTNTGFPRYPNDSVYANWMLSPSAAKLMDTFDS
Sequence of Serine/threonine-protein kinase 32A (Homo sapiens) (Q8WU08 whole entry): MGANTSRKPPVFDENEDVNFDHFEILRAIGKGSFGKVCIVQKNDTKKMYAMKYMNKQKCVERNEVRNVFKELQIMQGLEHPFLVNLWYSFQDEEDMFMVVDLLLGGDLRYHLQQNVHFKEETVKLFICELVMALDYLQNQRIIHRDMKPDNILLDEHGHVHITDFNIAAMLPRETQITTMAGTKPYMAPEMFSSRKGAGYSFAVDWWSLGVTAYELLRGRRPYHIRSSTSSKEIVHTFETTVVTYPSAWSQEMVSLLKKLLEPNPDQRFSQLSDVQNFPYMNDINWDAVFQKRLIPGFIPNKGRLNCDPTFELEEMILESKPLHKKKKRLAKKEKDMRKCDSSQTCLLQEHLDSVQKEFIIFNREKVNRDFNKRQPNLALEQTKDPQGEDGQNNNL
Sequence of Serine/threonine-protein kinase PLK3 (Q9H4B4 whole entry, looked up): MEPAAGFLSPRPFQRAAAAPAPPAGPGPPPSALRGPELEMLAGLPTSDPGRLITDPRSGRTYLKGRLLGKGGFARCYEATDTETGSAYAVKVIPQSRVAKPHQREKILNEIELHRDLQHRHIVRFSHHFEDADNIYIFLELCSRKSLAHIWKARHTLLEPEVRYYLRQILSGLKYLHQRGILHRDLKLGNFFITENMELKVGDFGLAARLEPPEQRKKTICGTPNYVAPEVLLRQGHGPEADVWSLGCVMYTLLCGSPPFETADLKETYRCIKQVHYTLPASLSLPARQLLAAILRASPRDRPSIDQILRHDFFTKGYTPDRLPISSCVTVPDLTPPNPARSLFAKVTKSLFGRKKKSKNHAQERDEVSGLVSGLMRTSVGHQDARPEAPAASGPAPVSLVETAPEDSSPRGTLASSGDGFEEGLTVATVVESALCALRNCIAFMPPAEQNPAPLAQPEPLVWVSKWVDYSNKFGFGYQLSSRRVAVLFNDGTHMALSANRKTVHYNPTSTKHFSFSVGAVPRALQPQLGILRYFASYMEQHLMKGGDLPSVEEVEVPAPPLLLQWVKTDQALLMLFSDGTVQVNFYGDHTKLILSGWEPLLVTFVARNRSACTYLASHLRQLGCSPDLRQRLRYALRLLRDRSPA

For `COc1cc(N(C)c2ccnc3ccc(C(F)(F)F)cc23)cc(OC)c1OC`, the % binding [1] was 82%.
`CCC(=O)N1CCN(c2ccc(-n3c(=O)ccc4cnc5ccc(-c6cnc7ccccc7c6)cc5c43)cc2C(F)(F)F)CC1` gave a % of control [2] of 22% and a % of control [3] of 87%.
`C=CC(=O)Nc1cccc(C(=O)Nc2ccc(Nc3cc(-c4[nH]c(SC)nc4C)ccn3)cc2)c1` gave a % of control ([4]; at 1 µM) of 97% and a % of control ([4]; at 5 µM) of 92%.
`Nc1cnc(N2CCc3cc(S(=O)(=O)Nc4c(F)cc(Cl)cc4F)cc(N4CCCC4=O)c32)nc1` [TP-020n] was tested, and the % of control [5] was 83% and the % of control [6] was 100%.
`C=CC(=O)Nc1ccc(C(=O)Nc2[nH]nc3c2CN(C(=O)N[C@H](CN(C)C)c2ccccc2)C3(C)C)cc1` was tested, and the % of engagement [7] was -6.9% and the % of engagement [8] was 2.6%.
`Cc1cc([C@@H](C)Nc2ccccc2C(=O)O)c2nc(N3CCOCC3)cc(=O)n2c1` [AZD-6482] gave a % of control [9] of 94% and a % of control [10] of 100%.
`CC[C@@H]1[C@H](F)C(=O)N[C@@H]1COc1nccc2cc(C(N)=O)c(OC)cc12` [ZIMLOVISERTIB] gave a % of inhibition [11] of -3.82%, a % of inhibition [12] of -1.7% and a % of inhibition [13] of 58.9%. It also gave a % of inhibition [14] of -29.5%.
With `COc1cc(Nc2nc(C)cc(-c3cnn4nc(OC)ccc34)n2)cc(C(F)(F)F)c1` the % of control [15] was 77%.
In the case of `COCC(=O)NC/C=C/c1ccc2ncnc(Nc3ccc(Oc4ccc(C)nc4)c(C)c3)c2c1` [CP-724714], the % of control [16] is reported as 75%.
For `CN(C)C/C=C/C(=O)Nc1ccc(C(=O)N2CCCC(Nc3ncc(Cl)c(-c4c[nH]c5ccccc45)n3)C2)cc1` (stereo not drawn), the % of control [17] was 91%.
